Test [1] has as its target T1, rat P2X2/3 (rat P2X3 co-expressed with rat P2X2) (Rattus norvegicus, UniProt P49653+P49654).
T1 sequence (P49654 1-397): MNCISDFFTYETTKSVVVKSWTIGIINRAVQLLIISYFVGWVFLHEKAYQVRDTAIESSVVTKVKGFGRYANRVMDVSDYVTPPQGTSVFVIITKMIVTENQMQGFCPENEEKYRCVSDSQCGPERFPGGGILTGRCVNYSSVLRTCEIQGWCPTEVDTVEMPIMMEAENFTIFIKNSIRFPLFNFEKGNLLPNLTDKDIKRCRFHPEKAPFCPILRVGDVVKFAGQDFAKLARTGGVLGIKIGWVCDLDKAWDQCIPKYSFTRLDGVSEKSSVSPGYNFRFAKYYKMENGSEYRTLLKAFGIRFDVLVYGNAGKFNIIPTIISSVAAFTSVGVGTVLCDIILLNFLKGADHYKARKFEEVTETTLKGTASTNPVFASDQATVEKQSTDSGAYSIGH
T1 sequence (P49653 1-472): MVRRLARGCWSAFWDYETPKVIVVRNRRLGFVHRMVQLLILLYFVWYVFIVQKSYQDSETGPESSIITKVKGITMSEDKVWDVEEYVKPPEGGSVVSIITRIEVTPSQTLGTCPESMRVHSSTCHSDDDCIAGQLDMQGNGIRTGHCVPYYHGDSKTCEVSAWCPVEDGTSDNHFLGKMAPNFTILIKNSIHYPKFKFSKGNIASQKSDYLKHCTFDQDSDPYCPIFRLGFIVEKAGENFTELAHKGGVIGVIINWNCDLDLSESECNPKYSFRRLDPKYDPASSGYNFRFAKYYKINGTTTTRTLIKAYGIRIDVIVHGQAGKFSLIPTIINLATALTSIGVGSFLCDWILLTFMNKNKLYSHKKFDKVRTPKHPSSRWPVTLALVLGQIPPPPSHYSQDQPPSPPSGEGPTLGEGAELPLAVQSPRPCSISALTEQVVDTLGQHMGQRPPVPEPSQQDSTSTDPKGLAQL
The experiment in a line: rat P2X2/3 FLIPR calcium (Fluo-4) antagonist assay. To be noted: Rat P2X2/3 FLIPR Mean IC50 (nM), HEK-TREX cells, tetracycline-induced rat P2X3 with constitutive rat P2X2; agonist 500 nM α,β-methylene-ATP.
Description: The assay used a calcium indicator dye (Fluo-4) that emits fluorescence, the intensity of which is related to the concentration of calcium that entered the cell when P2X3 was activated and the channel opened. Activation of hP2X3 or rat P2X3 and rat P2X2/3 (from the coexpression of rat P2X3 and rat P2×2) is elicited the by P2X3 agonist α,β methylene-ATP (Sigma M6517), and the resulting fluorescence is measured with a FLIPR II™ instrument (Molecular Devices). Compounds are tested for their ability to inhibit the agonist-induced fluorescent signal.
For the rat P2X2/3 HEK-TREX cells, induction of the rat P2X3 expression is used to generate the rat P2X2/3 channels in HEK-TREX cells and performed by addition of 1 μg/mL tetracycline (Invitrogen) 24 h prior to compounds testing to the HEK-TREX expressing the rat P2X2 constitutively. On the day of the experiment, the cells and test compounds are prepared as follows. […] After preparing the compounds, the medium is removed from the cell plates by inversion. A loading solution of 30 μL assay buffer containing 4 μM of the calcium indicator dye FLUO-4 AM (Molecular Probes F14202) is added to each well using a Multidrop (Labsystems). […] The incubation is terminated by washing the cells four times in assay buffer using a Skatron Embla (Molecular Devices), and 25 μL of assay buffer was left in each well. Cell plates are then transferred to the FLIPR. Experiments are initiated by measuring a baseline fluorescence reading for 10 seconds, followed by the addition of 12.5 μL of cpds and data sampling for a total 280 seconds. The experiments are terminated by addition of 12.5 μL of a reference agonist (500 nM α,β-methylene-ATP) or buffer, producing a final assay volume of 50 μL followed by data sampling for an additional 280 seconds.
In P2X3 antagonist experiments (human and rat assays) data are analysed as normalised maximal peak fluorescence monitored following agonist addition and calculated as percent of relative fluorescent counts from control agonist. The dose-response antagonist inhibition curves are analyzed in a 4-parameter sigmoidal fit using a non-linear curve-fitting program (XLfit version 5.0.6, ID Business Solutions Limited, Guildford, UK).

The target of test [2] is T2, hP2X3 (human Purinergic P2X receptors subtype 3), clone B (Homo sapiens, UniProt P56373).
T2 sequence (P56373 1-397): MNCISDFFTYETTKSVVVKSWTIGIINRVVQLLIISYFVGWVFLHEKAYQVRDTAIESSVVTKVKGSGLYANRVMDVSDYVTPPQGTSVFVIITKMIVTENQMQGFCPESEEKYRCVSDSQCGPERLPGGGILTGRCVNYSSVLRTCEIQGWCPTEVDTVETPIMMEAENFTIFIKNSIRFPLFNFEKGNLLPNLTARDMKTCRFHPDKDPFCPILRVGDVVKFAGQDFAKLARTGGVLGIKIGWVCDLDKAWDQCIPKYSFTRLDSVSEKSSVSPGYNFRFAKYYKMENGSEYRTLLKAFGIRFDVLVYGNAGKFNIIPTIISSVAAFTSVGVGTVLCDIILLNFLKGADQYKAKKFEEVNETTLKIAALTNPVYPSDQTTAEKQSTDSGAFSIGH
Nature of the test: hP2X3 FLIPR calcium (Fluo-4) antagonist assay, clone B. Conditions: Human P2X3 FLIPR Clone B IC50 (nM), RLE cells expressing hP2X3 clone B (NM_002559); agonist 500 nM α,β-methylene-ATP.

The text below walks through data of US20090099195A1 (ASTRAZENECA AB, priority 2007, published 2009).

For `CC(C)N1Cc2c(NC(C)(C)Cc3ccc(F)cc3)nc(N3CCN4C(=O)CCC4C3)nc2C1=O` (centres unmarked) [Example 134, 4-(1-(4-Fluorophenyl)-2-methylpropan-2-ylamino)-6-isopropyl-2-(6-oxohexahydro[1,2-a]pyrazin-2(1H)-yl)-5H-pyrrolo[3,4-d]pyrimidin-7(6H)-one], the values for the IC50 in test [1] and in test [2] were 49800 nM and 490 nM, respectively.

For the compound `CC(=O)N1CCN(c2nc(NCc3cnn(-c4ccccc4)c3)c3c(n2)C(=O)N(C(C)C)C3)CC1` [Example 146, 4-(4-acetylpiperazin-1-yl)-2-[(1-phenylpyrazol-4-yl)methylamino]-8-propan-2-yl-3,5,8-triazabicyclo[4.3.0]nona-1,3,5-trien-7-one], the IC50 in test [1] was found to be 2440 nM; in test [2] it was 67 nM.

Take `CC(=O)N1CCN(c2nc(NCc3cnc4ccccc4c3)c3c(n2)C(=O)N(C(C)C)C3)CC1C` (centres unmarked) [Example 142, 2-(4-Acetyl-3-methyl-piperazin-1-yl)-6-isopropyl-4-[(quinolin-3-ylmethyl)amino]-5,6-dihydro-pyrrolo[3,4-d]pyrimidin-7-one]: the IC50 in test [1] stood at 7550 nM; in test [2] it was 57 nM.

Take `CC(=O)N1CCN(c2nc3c(c(N4CCC[C@@H]4Cc4ccccc4)n2)CN(C(C)C)C3=O)CC1` [Example 116, 2-(4-acetylpiperazin-1-yl)-4-[(2R)-2-benzylpyrrolidin-1-yl]-6-isopropyl-5,6-dihydro-7H-pyrrolo[3,4-d]pyrimidin-7-one]: the IC50 stood at 10300 nM in test [1] and 57 nM in test [2].

As for `CCN(Cc1cc2ccccc2cn1)c1nc(N2CCN(C(C)=O)CC2)nc2c1CN(C(C)C)C2=O` [Example 245, 2-(4-acetylpiperazin-1-yl)-4-(ethyl(isoquinolin-3-ylmethyl)amino)-6-isopropyl-5H-pyrrolo[3,4-d]pyrimidin-7(6H)-one], the half-maximal inhibitory concentration (IC50) came to 2160 nM in test [1] and 28 nM in test [2].

As to `CC(=O)N1CCN(c2nc(NCc3cc(C)c4ncccc4c3)c3c(n2)C(=O)N(C(C)C)C3)CC1` [Example 247, 2-(4-acetylpiperazin-1-yl)-6-isopropyl-4-((8-methylquinolin-6-yl)methylamino)-5H-pyrrolo[3,4-d]pyrimidin-7(6H)-one], the figures for the IC50 in test [1] and in test [2] were 9070 nM and 77 nM, respectively.

Turning to `CC(=O)N1CCN(c2nc3c(c(N4CCCC4c4cnc5ccccc5c4)n2)CN(C(C)C)C3=O)CC1` (single isomer, unassigned) [Example 282, 4-(4-acetylpiperazin-1-yl)-8-propan-2-yl-2-(2-quinolin-3-ylpyrrolidin-1-yl)-3,5,8-triazabicyclo[4.3.0]nona-1,3,5-trien-7-one], the IC50 in test [1] worked out at 2530 nM; in test [2], 550 nM.

As to `CC(=O)N1CCN(c2nc(NC(C)c3cnn(-c4ccccc4)c3)c3c(n2)C(=O)N(C(C)C)C3)CC1` (centres unmarked) [Example 150, 4-(4-acetylpiperazin-1-yl)-2-[1-(1-phenylpyrazol-4-yl)ethylamino]-8-propan-2-yl-3,5,8-triazabicyclo[4.3.0]nona-1,3,5-trien-7-one], the figures for the IC50 in test [1] and in test [2] were 237 nM and 60 nM, respectively.

As for `CC(=O)N1CCN(c2nc(NCc3ccc4nc(C)ccc4c3)c3c(n2)C(=O)N(C(C)C)C3)CC1` [Example 242, 2-(4-acetylpiperazin-1-yl)-6-isopropyl-4-((2-methylquinolin-6-yl)methylamino)-5H-pyrrolo[3,4-d]pyrimidin-7(6H)-one], the IC50 in test [1] is 10400 nM; in test [2], 65 nM.

With `COc1ccc(CC2CCCN2c2nc(N3CCN(C(C)=O)CC3)nc3c2CN(C(C)C)C3=O)cc1` (single isomer, unassigned) [Example 287, 2-(4-acetylpiperazin-1-yl)-6-isopropyl-4-[2-[(4-methoxyphenyl)methyl]pyrrolidin-1-yl]-5H-pyrrolo[3,4-d]pyrimidin-7-one], the IC50 in test [1] came out at 1500 nM; in test [2] it was 53 nM.

For orientation: IC50 means the concentration that inhibits the measured activity by half.
